Paper PMC8361756, “Treatment of Cardiovascular Dysfunction With PDE5-Inhibitors – Temperature Dependent Effects on Transport and Metabolism of cAMP and cGMP” (Frontiers in Physiology, 2021)
Where two headings read alike, the source gives them in different places.

Assays:
PDE5 = PDE5 (Homo sapiens, UniProt O76074); details: concentration needed to increase inhibition from 25% to 75%
Experimental: (§1) The assays were performed in triplicates at three different days. […] The reaction was started by adding either a solution containing 0.016 units/μg protein of PDE3 (Abcam, Cambridge United Kingdom), or 0.022 units/μg protein of PDE5 (Sigma-Aldrich, St. Louis, MO, United States), to the Eppendorf tubes. Parallels for cAMP-metabolism included PDE3 only and parallels for cGMP-metabolism included PDE5 only. Control samples were free of drug and was either with or without PDE3 or PDE5. This was done to assure that only the relevant PDE was responsible for breakdown of the cyclic nucleotide, as no other enzyme nor cellular material was added to the incubations. The incubation time was 30 min (see Table 2). Reaction was stopped by adding methanol to the tubes. Internal standard of cGMP/GMP or cAMP/AMP (Sigma-Aldrich, St. Louis, MO, United States, Germany and Toronto Research Chemicals Inc., Toronto, ON, Canada) were added to each sample. Five samples contained only known concentrations of cGMP/GMP or cAMP/AMP and served as calibrators. Samples were analyzed for cGMP/GMP and cAMP/AMP content, using MS.

PDE3 = details: for IC25–IC75 interval PDE3: concentration needed to increase inhibition from 25% to 75%; for IC50: read-out: IC50 PDE3, 5 μM cAMP, 30 min; for Ki: read-out: Ki PDE3-inhibition, Cheng-Prusoff from IC50
Experimental: as §1

cGMP-efflux (ABCC5) = cGMP-efflux (ABCC5) (Homo sapiens, UniProt O15440); format: biochemical; details: for IC25–IC75 interval cGMP-efflux: concentration needed to increase inhibition from 25% to 75%
Chain of cGMP-efflux (ABCC5) (O15440 whole entry): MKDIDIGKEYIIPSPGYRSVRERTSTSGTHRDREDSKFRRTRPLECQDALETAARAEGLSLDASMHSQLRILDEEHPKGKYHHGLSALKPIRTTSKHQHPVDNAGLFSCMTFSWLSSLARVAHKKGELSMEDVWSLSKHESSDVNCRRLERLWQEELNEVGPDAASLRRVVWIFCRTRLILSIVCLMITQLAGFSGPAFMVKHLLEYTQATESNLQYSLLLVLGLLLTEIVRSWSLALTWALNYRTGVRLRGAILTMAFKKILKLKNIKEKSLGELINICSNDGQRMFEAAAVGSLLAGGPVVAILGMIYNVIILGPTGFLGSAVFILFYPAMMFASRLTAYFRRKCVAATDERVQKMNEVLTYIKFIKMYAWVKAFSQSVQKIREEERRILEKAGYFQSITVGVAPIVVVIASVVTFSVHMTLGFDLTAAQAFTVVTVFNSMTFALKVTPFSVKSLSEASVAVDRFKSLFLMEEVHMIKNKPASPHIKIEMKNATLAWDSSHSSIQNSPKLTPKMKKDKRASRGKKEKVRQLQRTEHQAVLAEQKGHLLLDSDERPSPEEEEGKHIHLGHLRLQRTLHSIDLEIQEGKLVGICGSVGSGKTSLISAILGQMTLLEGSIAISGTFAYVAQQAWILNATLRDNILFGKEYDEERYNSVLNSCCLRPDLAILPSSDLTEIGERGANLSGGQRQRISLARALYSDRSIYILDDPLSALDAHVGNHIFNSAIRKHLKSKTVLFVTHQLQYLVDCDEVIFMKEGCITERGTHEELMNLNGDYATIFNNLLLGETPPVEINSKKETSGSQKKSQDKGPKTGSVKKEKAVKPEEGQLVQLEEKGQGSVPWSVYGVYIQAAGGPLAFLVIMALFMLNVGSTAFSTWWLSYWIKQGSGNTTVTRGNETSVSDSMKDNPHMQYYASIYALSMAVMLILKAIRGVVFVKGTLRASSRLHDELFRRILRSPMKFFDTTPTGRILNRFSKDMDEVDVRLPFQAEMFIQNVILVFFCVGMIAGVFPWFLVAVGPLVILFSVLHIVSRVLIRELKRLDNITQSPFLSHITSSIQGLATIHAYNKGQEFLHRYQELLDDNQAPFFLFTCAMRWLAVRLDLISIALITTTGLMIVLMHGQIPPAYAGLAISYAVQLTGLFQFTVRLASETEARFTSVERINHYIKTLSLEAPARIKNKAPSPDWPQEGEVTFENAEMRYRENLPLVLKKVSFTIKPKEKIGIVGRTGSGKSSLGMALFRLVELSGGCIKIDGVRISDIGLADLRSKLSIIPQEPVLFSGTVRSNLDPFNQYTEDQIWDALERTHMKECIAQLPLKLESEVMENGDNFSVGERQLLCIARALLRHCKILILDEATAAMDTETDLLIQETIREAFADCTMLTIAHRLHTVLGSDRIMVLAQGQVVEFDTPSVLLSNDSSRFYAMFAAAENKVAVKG
Experimental: (§2) Cellular extrusion was determined using the inside-out vesicle (IOV) method where erythrocytes from healthy, human donors were sampled. […] The erythrocytes were separated from plasma by centrifugation and washed. […] The membrane vesiculation was initiated by adding […] buffer to the cell suspension. After centrifugation, the suspension was forced through a syringe needle to enhance homogenization of the membranes. IOVs were separated from right side out vesicles (ROV) and unsealed erythrocyte membranes (ghosts) by ultracentrifugation overnight using a density gradient. The uppermost band was collected, washed, and resuspended. […] Batches of IOVs used in the parallels were made eight times, including blood from a total of 35 healthy donors.
(§3) The incubation solutions also included radioactive labeled [^3H]-cGMP and [^3H]-cAMP (Perkin Elmer, Boston, MA, United States), at a concentration of, respectively, 2 μM and 20 μM. […] Incubation time of 60 min was chosen to ensure sufficient quality of the samples for each parallel (Table 2). The transport was stopped by adding ice cold buffer. The IOVs were then filtered through a nitrocellulose membrane (Bio-Rad Laboratories, Feldkirchen, Germany), and the membrane was dried. The dried membranes were later added scintillation fluid and radioactivity was measured using a Packard TopCount NXT (Packard, Downers Grove, IL, United States).
(§4) Experiments determined total ATP-dependent cellular efflux of cGMP or cAMP from IOVs.

cAMP-efflux (ABCC4) = molecular target: T1, cAMP-efflux (ABCC4) (Homo sapiens, UniProt O15439); test: biochemical; format: biochemical; details: for Inhibition of cAMP-efflux: 1.00 nM to 1.00 mM; for Inhibition of cAMP-efflux / IC50: 60 min, IOV; for IC25–IC75 interval cAMP-efflux: concentration needed to increase inhibition from 25% to 75%; for IC50: 20 μM [3H]-cAMP; for Ki: Cheng-Prusoff from IC50
T1 construct: from tissue; host or cells: human erythrocyte membranes (inside-out vesicles), pooled donors
T1 sequence (O15439 1-1325): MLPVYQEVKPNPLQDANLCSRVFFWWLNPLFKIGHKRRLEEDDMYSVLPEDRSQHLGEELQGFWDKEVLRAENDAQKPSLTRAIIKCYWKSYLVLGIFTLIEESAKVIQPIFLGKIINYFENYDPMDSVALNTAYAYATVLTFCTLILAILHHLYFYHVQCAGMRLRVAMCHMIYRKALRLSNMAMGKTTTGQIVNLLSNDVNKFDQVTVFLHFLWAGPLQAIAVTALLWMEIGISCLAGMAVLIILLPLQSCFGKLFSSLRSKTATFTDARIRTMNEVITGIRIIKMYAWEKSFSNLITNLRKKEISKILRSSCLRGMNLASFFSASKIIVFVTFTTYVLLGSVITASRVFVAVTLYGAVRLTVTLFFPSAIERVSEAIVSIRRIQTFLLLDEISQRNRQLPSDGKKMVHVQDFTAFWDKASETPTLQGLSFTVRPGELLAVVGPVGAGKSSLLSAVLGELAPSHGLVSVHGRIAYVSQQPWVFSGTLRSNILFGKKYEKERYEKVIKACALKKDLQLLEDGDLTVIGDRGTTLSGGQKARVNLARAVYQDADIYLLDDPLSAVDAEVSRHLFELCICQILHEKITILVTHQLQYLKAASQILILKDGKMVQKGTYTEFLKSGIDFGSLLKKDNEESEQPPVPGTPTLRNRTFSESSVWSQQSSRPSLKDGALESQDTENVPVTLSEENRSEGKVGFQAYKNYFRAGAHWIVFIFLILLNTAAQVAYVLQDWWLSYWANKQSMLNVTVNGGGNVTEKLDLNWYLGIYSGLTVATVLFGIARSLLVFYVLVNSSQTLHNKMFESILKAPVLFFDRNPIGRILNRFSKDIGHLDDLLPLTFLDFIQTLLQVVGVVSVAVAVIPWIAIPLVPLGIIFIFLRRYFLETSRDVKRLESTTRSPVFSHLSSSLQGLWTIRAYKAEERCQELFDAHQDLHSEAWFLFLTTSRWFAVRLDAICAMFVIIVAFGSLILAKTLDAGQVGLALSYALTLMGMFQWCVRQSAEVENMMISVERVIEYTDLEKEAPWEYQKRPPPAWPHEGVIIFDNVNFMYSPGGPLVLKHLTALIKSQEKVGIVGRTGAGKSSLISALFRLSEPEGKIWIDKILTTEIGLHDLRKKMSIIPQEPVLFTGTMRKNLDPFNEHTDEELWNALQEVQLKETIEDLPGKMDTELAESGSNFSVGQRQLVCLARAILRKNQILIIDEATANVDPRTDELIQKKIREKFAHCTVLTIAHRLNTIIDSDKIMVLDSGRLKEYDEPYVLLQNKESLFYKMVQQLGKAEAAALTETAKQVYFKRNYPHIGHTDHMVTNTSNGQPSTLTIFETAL
Experimental: as §2, §3, §4

[1] = ref Walker (1999); cited from earlier work

CCCc1nn(C)c2c(=O)[nH]c(-c3cc(S(=O)(=O)N4CCN(C)CC4)ccc3OCC)nc12 [Sildenafil]
IC25–IC75 interval PDE5 (PDE5; 20°C): 0.132 ± 0.048 µM | IC25–IC75 interval PDE5 (PDE5; 20°C, listed as sildenafil): 0.132 ± 0.048 µM | IC25–IC75 interval PDE5 (PDE5; 24°C): 0.098 ± 0.012 µM | IC25–IC75 interval PDE5 (PDE5; 24°C, listed as sildenafil): 0.098 ± 0.012 µM | IC25–IC75 interval PDE5 (PDE5; 28°C): 0.083 ± 0.008 µM | IC25–IC75 interval PDE5 (PDE5; 32°C): 0.060 ± 0.006 µM | IC25–IC75 interval PDE5 (PDE5; 34°C): 0.055 ± 0.004 µM | IC25–IC75 interval PDE5 (PDE5; 37°C): 0.038 ± 0.000 µM | IC25–IC75 interval PDE3 (PDE3; 20°C): […] | IC25–IC75 interval PDE3 (PDE3; 20°C, listed as sildenafil): […] | IC25–IC75 interval PDE3 (PDE3; 24°C): […] | IC25–IC75 interval PDE3 (PDE3; 28°C): […] | IC25–IC75 interval PDE3 (PDE3; 32°C): […] | IC25–IC75 interval PDE3 (PDE3; 34°C): […] | IC25–IC75 interval PDE3 (PDE3; 37°C): […] | IC50 (PDE3; 20°C): […] | IC50 (PDE3; 24°C): […] | IC50 (PDE3; 28°C): […] | IC50 (PDE3; 32°C): […] | IC50 (PDE3; 34°C): […] | IC50 (PDE3; 37°C): […] | IC25–IC75 interval cGMP-efflux (cGMP-efflux (ABCC5); 20°C): 19.2 ± 8.45 µM | IC25–IC75 interval cGMP-efflux (cGMP-efflux (ABCC5); 24°C): 11.4 ± 4.73 µM | IC25–IC75 interval cGMP-efflux (cGMP-efflux (ABCC5); 28°C): 12.0 ± 1.96 µM | IC25–IC75 interval cGMP-efflux (cGMP-efflux (ABCC5); 32°C): 9.76 ± 3.99 µM | IC25–IC75 interval cGMP-efflux (cGMP-efflux (ABCC5); 34°C): 13.5 ± 1.74 µM | IC25–IC75 interval cGMP-efflux (cGMP-efflux (ABCC5); 37°C): 23.6 ± 9.08 µM | Inhibition of cAMP-efflux (cAMP-efflux (ABCC4); 20°C): neither of the drugs were able to inhibit cAMP-efflux | Inhibition of cAMP-efflux (cAMP-efflux (ABCC4); 24°C): neither of the drugs were able to inhibit cAMP-efflux | IC25–IC75 interval cAMP-efflux (cAMP-efflux (ABCC4); 28°C): 13.8 ± 3.85 µM | IC25–IC75 interval cAMP-efflux (cAMP-efflux (ABCC4); 32°C): 20.0 ± 4.27 µM | IC25–IC75 interval cAMP-efflux (cAMP-efflux (ABCC4); 34°C): 19.8 ± 1.82 µM | IC25–IC75 interval cAMP-efflux (cAMP-efflux (ABCC4); 37°C): 27.1 ± 9.36 µM | Protein binding [1]: 94–96%

CCCc1nc(C)c2c(=O)[nH]c(-c3cc(S(=O)(=O)N4CCN(CC)CC4)ccc3OCC)nn12 [Vardenafil]
IC25–IC75 interval PDE5 (PDE5; 20°C): 0.103 ± 0.027 µM | IC25–IC75 interval PDE5 (PDE5; 24°C): 0.074 ± 0.005 µM | IC25–IC75 interval PDE5 (PDE5; 28°C): 0.049 ± 0.016 µM | IC25–IC75 interval PDE5 (PDE5; 32°C): 0.062 ± 0.016 µM | IC25–IC75 interval PDE5 (PDE5; 34°C): 0.028 ± 0.012 µM | IC25–IC75 interval PDE5 (PDE5; 37°C): 0.059 ± 0.029 µM | IC25–IC75 interval PDE3 (PDE3; 20°C): 709 ± 105 µM | IC25–IC75 interval PDE3 (PDE3; 24°C): 148 ± 31.9 µM | IC25–IC75 interval PDE3 (PDE3; 28°C): 128 ± 35.9 µM | IC25–IC75 interval PDE3 (PDE3; 32°C): 107 ± 27.0 µM | IC25–IC75 interval PDE3 (PDE3; 34°C): 72.1 ± 3.24 µM | IC25–IC75 interval PDE3 (PDE3; 37°C): 61.0 ± 14.3 µM | IC50 (PDE3; 20°C): 73.4 ± 26.3 µM | IC50 (PDE3; 24°C): 55.5 ± 4.75 µM | IC50 (PDE3; 28°C): 32.7 ± 11 µM | IC50 (PDE3; 32°C): 40.5 ± 3.78 µM | IC50 (PDE3; 34°C): 24.9 ± 5.73 µM | IC50 (PDE3; 37°C): 16.5 ± 6.08 µM | Ki (PDE3; 20°C): 3.36 ± 1.21 µM | Ki (PDE3; 24°C): 2.54 ± 0.218 µM | Ki (PDE3; 28°C): 1.5 ± 0.505 µM | Ki (PDE3; 32°C): 1.85 ± 0.173 µM | Ki (PDE3; 34°C): 1.14 ± 0.263 µM | Ki (PDE3; 37°C): 0.757 ± 0.276 µM | IC25–IC75 interval cGMP-efflux (cGMP-efflux (ABCC5); 20°C): 28.1 ± 14.6 µM | IC25–IC75 interval cGMP-efflux (cGMP-efflux (ABCC5); 24°C): 13.0 ± 1.74 µM | IC25–IC75 interval cGMP-efflux (cGMP-efflux (ABCC5); 28°C): 10.6 ± 2.75 µM | IC25–IC75 interval cGMP-efflux (cGMP-efflux (ABCC5); 32°C): 18.0 ± 4.12 µM | IC25–IC75 interval cGMP-efflux (cGMP-efflux (ABCC5); 34°C): 19.2 ± 3.16 µM | IC25–IC75 interval cGMP-efflux (cGMP-efflux (ABCC5); 37°C): 12.6 ± 3.89 µM | Linear regression equation, IC50 inhibition of cGMP-efflux vs temperature (cGMP-efflux (ABCC5); not told): y = 9.64 − 0.098x | Inhibition of cAMP-efflux (cAMP-efflux (ABCC4); 20°C): neither of the drugs were able to inhibit cAMP-efflux | Inhibition of cAMP-efflux (cAMP-efflux (ABCC4); 24°C): neither of the drugs were able to inhibit cAMP-efflux | IC50 (cAMP-efflux (ABCC4); 28°C): 9.63 ± 5.79 µM | Ki (cAMP-efflux (ABCC4); 28°C): 5.84 ± 3.51 µM | IC25–IC75 interval cAMP-efflux (cAMP-efflux (ABCC4); 28°C): 17.3 ± 6.59 µM | IC50 (cAMP-efflux (ABCC4); 32°C): 13 ± 1.69 µM | Ki (cAMP-efflux (ABCC4); 32°C): 7.86 ± 1.02 µM | IC25–IC75 interval cAMP-efflux (cAMP-efflux (ABCC4); 32°C): 27.3 ± 6.19 µM | IC50 (cAMP-efflux (ABCC4); 34°C): 5.82 ± 0.685 µM | Ki (cAMP-efflux (ABCC4); 34°C): 3.53 ± 0.415 µM | IC25–IC75 interval cAMP-efflux (cAMP-efflux (ABCC4); 34°C): 19.9 ± 0.967 µM | IC50 (cAMP-efflux (ABCC4); 37°C): 5.85 ± 0.51 µM | Ki (cAMP-efflux (ABCC4); 37°C): 3.55 ± 0.311 µM | IC25–IC75 interval cAMP-efflux (cAMP-efflux (ABCC4); 37°C): 30.9 ± 6.82 µM | Linear regression equation, IC50 inhibition of cAMP-efflux vs temperature (cAMP-efflux (ABCC4); not told): y = 26.4 − 0.545x
